The source of these data is BindingDB's records for patent US20230271968 (Beijing Tide Pharmaceutical, 2023).

For the experiment, the target named is Serine/threonine-protein kinase ATR (Homo sapiens, UniProt Q13535). In words: Assay of ATR Kinase Activity. The procedure: The amount of phosphorylated protein was determined by time-resolved fluorescence in this assay. The amount of phosphorylated protein was detected by anti-p53-phospho-(serine 15)-K-specific antibody (Cisbio, art. No.: 61GSTDLA) and d2 labeled anti-GST antibody (Cisbio, art. No. 61P08KAE). […] The reagents used above were purchased from Sigma or Invitrogen, except for those whose manufacturers were mentioned.
Serine/threonine-protein kinase ATR, sequence (Q13535 whole entry): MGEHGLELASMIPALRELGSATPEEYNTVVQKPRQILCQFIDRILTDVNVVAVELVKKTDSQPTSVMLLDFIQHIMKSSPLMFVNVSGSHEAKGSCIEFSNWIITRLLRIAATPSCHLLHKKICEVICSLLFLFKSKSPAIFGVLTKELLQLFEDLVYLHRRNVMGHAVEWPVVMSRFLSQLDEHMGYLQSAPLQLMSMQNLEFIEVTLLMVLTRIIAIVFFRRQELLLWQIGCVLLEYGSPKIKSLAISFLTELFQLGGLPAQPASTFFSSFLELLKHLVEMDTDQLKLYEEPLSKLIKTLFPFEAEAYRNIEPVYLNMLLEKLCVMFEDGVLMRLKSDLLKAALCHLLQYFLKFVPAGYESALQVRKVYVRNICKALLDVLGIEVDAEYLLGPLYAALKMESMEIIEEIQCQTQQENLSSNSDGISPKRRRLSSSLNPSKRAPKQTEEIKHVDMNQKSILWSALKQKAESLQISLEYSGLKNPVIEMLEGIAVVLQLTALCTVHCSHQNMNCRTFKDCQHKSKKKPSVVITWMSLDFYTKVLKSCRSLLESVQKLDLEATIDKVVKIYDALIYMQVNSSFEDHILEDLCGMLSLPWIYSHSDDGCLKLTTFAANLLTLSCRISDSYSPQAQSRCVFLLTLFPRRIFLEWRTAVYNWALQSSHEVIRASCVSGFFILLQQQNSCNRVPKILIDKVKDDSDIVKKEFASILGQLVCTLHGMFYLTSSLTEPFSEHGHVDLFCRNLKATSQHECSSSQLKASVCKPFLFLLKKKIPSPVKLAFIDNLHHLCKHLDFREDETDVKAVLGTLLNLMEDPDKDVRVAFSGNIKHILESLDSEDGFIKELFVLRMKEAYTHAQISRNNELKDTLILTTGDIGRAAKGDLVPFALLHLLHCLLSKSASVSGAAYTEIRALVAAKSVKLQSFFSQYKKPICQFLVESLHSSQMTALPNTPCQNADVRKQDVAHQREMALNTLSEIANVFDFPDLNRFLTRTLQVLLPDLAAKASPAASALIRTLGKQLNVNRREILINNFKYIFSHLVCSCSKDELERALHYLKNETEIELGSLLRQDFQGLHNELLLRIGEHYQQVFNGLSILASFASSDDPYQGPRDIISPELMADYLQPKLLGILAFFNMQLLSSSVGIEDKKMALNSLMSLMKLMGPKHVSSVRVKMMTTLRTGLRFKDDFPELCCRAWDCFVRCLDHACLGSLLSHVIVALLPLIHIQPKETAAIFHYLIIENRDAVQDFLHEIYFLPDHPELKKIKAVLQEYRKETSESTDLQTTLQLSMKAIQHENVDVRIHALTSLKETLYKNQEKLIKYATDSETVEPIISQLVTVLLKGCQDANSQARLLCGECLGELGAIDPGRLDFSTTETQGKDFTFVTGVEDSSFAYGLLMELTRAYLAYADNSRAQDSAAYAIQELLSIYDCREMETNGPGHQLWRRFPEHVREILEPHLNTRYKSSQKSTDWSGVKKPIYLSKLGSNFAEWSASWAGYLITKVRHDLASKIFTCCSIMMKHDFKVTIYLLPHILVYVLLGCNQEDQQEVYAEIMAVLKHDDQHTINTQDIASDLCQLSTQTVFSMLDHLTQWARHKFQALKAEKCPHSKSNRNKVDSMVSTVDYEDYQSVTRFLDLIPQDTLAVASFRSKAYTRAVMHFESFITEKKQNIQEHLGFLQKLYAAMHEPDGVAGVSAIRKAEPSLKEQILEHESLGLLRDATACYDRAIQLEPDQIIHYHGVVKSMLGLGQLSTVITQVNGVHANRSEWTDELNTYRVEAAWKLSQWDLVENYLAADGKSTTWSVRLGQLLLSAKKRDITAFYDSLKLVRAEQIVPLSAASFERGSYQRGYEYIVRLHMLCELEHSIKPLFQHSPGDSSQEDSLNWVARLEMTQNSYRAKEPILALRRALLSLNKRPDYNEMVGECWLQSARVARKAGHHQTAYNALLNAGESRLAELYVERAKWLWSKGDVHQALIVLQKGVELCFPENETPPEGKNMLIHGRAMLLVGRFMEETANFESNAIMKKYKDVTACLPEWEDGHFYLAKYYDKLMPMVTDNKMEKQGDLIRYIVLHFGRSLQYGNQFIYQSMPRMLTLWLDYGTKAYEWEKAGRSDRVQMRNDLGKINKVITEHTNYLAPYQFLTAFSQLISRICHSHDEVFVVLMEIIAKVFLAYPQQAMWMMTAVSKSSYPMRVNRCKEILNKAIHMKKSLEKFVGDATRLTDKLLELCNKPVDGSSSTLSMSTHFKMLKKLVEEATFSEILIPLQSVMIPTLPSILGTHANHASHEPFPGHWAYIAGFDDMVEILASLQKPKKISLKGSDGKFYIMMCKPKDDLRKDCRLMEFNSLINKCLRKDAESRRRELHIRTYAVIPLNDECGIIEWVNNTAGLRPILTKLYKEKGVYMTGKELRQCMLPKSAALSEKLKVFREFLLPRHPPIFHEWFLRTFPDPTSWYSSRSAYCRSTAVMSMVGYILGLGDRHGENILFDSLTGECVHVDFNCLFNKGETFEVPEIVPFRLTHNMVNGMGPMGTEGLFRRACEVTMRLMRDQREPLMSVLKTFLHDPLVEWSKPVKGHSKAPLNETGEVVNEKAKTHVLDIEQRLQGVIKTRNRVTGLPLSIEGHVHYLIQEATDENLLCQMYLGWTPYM

As usually defined, the IC50 is the concentration needed to halve the response being measured. A higher IC50 goes with lower potency.

Compound `Cc1nn(-c2cncc(C#N)c2)c(C)c1-c1cc(N2CCOC[C@H]2C)nc2c(-c3ccn[nH]3)cnn12` [US20230271968, Compound A11] returned an IC50 of 9 nM.
